Test results from patent US8492564B2 (priority 2008, dated 2013).
Read-outs that look alike come from different tables or passages of the source.

Legend:
human KOPR (hKOPR) = human KOPR (hKOPR) (Homo sapiens (Human), UniProt P41145); format: binding
hKOPR = hKOPR (Homo sapiens (Human), UniProt P41145); test: biochemical; conditions: for Emax: read-out: Efficacy (Percent of the maximal effect of U50,488H)
Locomotor activity = format: in vivo; conditions: rats
[1] = Intracranial self-stimulation (ICSS); format: in vivo; conditions: 1.0 mg/kg, IP, rats, 1-hour test sessions
Forced swim test (FST) = format: in vivo; conditions: rats
Procedure: The FST is a two day procedure in which rats swim under conditions in which escape is not possible. On the first day, the rats are forced to swim for 15 minutes. The rats initially search for an escape from the water, but eventually adopt a posture of immobility in which they make only the movements necessary to keep their heads above water. Upon re-testing one day later, latencies to become immobile (an indicator of how rapidly the rats “give up” in response to a familiar stressor) are decreased, which is inferred as despair. Standard antidepressants such as desipramine (DMI) and fluoxetine (FLX) extend latencies to become immobile. Drug efficacy in this animal model is predictive of antidepressant efficacy in humans. The FST has been described by Mague et al., J. Pharmacol. Exp. Ther. 305:323 (2003).

Compound	Ki (human KOPR (hKOPR)) [nM]	EC50 (hKOPR; read-out: EC50) [nM]	Emax (hKOPR) [%]	effect on locomotor activity (Locomotor activity)	ICSS thresholds [1]	effect in the forced swim test (Forced swim test (FST))	Efficacy (Percent of the maximal effect of U50,488H) (hKOPR) [%]	EC50 (hKOPR) [nM]
COC(=O)[C@@H]1C[C@H](OC(C)=O)C(=O)[C@H]2[C@@]1(C)CC[C@H]1C(=O)O[C@H](C(=O)OC(C)C)C[C@]21C [Compound 20]	109 ± 12	337 ± 54	94 ± 2					
COC(=O)[C@@H]1C[C@H](OC(C)=O)C(=O)[C@H]2[C@@]1(C)CC[C@H]1C(=O)O[C@H](C(=O)c3cccs3)C[C@]21C [Compound 13]	38 ± 10	101 ± 6	103 ± 1					
COC(=O)[C@@H]1C[C@]2(C)[C@H]3C(=O)[C@@H](OC(C)=O)C[C@@H](C(=O)OC)[C@]3(C)CC[C@H]2C(=O)O1 [Compound 18]	154 ± 27	361 ± 25	99 ± 2					
COC[C@@H]1C[C@]2(C)[C@H]3C(=O)[C@@H](OC(C)=O)C[C@@H](C(=O)OC)[C@]3(C)CC[C@H]2C(=O)O1 [Compound 9]	498 ± 71	330 ± 30	98 ± 2					
CCOC(=O)[C@@H]1C[C@]2(C)[C@H]3C(=O)[C@@H](OC(C)=O)C[C@@H](C(=O)OC)[C@]3(C)CC[C@H]2C(=O)O1 [Compound 19]	196 ± 23	508 ± 8	94 ± 2					
COC(=O)[C@@H]1C[C@H](OC(C)=O)C(=O)[C@H]2[C@@]1(C)CC[C@H]1C(=O)O[C@H](c3ccoc3)C[C@]21C [Salvinorin A, salvinorin A]				without affecting locomotor activity	significantly elevated	depressive-like effects		
COC(=O)[C@@H]1C[C@H](OC(C)=O)C(=O)[C@H]2[C@@]1(C)CC[C@H]1C(=O)O[C@H](COC(C)=O)C[C@]21C [Compound 11]	555 ± 97	299 ± 13	113 ± 3					
COC(=O)[C@@H]1C[C@H](OC(C)=O)C(=O)[C@H]2[C@@]1(C)CC[C@H]1C(=O)O[C@H](C(=O)c3cnccn3)C[C@]21C [Compound 16]	83 ± 28	195 ± 6	103 ± 3					
COC(=O)[C@@H]1C[C@H](OC(C)=O)C(=O)[C@H]2[C@@]1(C)CC[C@H]1C(=O)O[C@H](C(O)c3ccco3)C[C@]21C (some centres unmarked) [Compound 17]	20 ± 2	36 ± 5	114 ± 4					
C=Cc1occc1[C@@H]1C[C@]2(C)[C@H]3C(=O)[C@@H](OC(C)=O)C[C@@H](C(=O)OC)[C@]3(C)CC[C@H]2C(=O)O1 [Compound 3]	7.1 ± 0.1	4.6 ± 0.1	120 ± 6					
COC(=O)[C@@H]1C[C@H](OC(C)=O)C(=O)[C@H]2[C@@]1(C)CCC1C(=O)O[C@H](C(=O)O)C[C@@]12C (some centres unmarked) [Compound 7]	55 ± 23	167 ± 35					99 ± 1	
CCOC[C@@H]1C[C@]2(C)[C@H]3C(=O)[C@@H](OC(C)=O)C[C@@H](C(=O)OC)[C@]3(C)CC[C@H]2C(=O)O1 [Compound 10]	497 ± 13							> 1000
